Test results taken from ChEMBL document CHEMBL1201862, “PubChem BioAssay data set” (2004).
Activity calls are given as the source filed them.

What was measured:
cells = assay type: functional
[1] = molecular target: T1, Corticotropin-releasing factor receptor 2/Corticotropin-releasing factor-binding protein (Homo sapiens, UniProt P24387+Q13324); test: activators of CRF receptor 2 with binding protein – uHTS hits, confirmation (AID 602473); assay type: functional; conditions: read-out: EC50_Mean
T1 sequence (Q13324 whole entry): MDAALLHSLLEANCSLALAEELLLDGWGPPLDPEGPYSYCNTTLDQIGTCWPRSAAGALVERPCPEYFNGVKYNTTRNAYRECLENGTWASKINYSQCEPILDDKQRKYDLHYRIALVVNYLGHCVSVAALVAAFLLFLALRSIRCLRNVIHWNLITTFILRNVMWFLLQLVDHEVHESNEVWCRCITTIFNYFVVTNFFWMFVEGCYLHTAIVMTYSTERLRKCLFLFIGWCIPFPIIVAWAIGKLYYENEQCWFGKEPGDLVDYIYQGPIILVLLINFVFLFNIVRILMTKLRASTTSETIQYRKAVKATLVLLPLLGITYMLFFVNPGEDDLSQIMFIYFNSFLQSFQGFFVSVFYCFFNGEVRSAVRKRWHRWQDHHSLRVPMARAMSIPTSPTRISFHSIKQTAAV
T1 sequence (P24387 whole entry): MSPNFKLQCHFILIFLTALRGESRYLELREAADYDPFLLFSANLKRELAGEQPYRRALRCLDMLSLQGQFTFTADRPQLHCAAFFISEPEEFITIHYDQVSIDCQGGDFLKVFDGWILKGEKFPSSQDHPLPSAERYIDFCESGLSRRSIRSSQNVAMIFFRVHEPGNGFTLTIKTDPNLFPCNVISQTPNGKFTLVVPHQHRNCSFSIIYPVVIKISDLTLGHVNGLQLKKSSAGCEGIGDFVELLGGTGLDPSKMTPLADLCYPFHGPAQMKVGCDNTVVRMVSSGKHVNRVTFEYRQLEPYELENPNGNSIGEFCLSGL

[2] = molecular target: T1, Corticotropin-releasing factor receptor 2/Corticotropin-releasing factor-binding protein; test: Dose Response confirmation of uHTS hits for small molecule antagonists of the CRF-binding protein and CRF-R2 receptor complex.; assay type: functional; conditions: read-out: IC50_Mean
[3] = molecular target: T2, Heat shock factor protein 1 (Mus musculus, UniProt P38532); test: HSF1 potentiators in luciferase reporter cells, confirmation, cell-based, NIH3T3, luminescence, dose retest (AID 435004); assay type: functional;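 note: stress induced by proteasome inhibitor MG132 added 30 min after compound; luciferase reporter driven by HSF1 response element in NIH3T3 cells; actives raise luminescence as potentiators of the MG132 stress response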
T2 sequence (P38532 whole entry): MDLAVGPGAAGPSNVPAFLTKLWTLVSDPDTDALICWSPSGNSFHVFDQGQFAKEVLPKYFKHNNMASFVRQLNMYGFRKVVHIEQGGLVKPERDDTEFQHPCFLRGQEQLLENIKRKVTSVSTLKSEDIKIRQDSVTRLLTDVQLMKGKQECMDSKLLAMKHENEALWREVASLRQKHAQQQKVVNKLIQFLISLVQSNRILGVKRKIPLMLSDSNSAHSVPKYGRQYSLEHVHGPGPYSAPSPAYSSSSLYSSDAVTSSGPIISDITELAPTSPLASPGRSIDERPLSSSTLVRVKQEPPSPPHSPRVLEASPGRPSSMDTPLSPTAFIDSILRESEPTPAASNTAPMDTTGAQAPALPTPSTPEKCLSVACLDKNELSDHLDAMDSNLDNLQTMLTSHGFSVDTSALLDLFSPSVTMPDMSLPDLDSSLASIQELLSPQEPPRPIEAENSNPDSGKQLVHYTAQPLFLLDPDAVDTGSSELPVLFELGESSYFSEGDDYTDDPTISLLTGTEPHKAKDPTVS

H9c2 = test: cells; assay type: functional, cell-based; conditions: Rattus norvegicus, H9c2, Myocardium;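 note: confirmatory concentration-response retest of ultra-high-throughput screening hits for modulation of myocardial damage; cell death induced by hydrogen peroxide oxidative stress; compound pretreatment for 60 min then peroxide exposure for 2 h; potency is for protecting the cells against peroxide damage rather than for killing them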
[4] = growth suppression of PTEN-null colon cells, dose response, cell-based, HCT116 PTEN knockout (AID 1047); assay type: functional;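 note: HCT116 colon tumor cells with PTEN knocked out; cells exposed to compound for 60 hours before readout; potency for loss of cell viability measured by luminescence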
[5] = growth suppression of beta-catenin-knockout colon cells, dose response, cell-based, HCT116, human colon tumor (AID 1045); assay type: functional;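 note: HCT116 colon tumor cells with beta catenin knocked out; cells exposed to compound for 60 hours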
[6] = Luminescence Cell-Based Dose Retest to Confirm Inhibitors of Cancer Stem Cells. [Related pubchem assays (depositor defined):AID2717, AID2721]; assay type: functional; conditions: Homo sapiens
INS1 = test: beta cell apoptosis inhibitors, cytokine rescue, dose response, luminescence, retest (AID 449756); assay type: functional, cell-based; conditions: Rattus norvegicus;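 note: cell death triggered by IL-1 beta plus TNF-alpha plus IFN-gamma mixture; protective hits raise ATP signal compared with cytokine alone wells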
[7] = molecular target: T2, Heat shock factor protein 1; test: inhibition of MG132-induced HSE-luciferase signal, confirmation, cell-based, NIH3T3, luminescence, dose retest (AID 2382); assay type: functional;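 note: NIH3T3 fibroblasts with HSF1-driven luciferase reporter stressed by proteasome inhibitor MG132; luminescence from HSF1-driven luciferase expression after 8 hours of MG132 stress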
[8] = molecular target: T3, Polyadenylate-binding protein 1 (Homo sapiens, UniProt P11940); test: PABP1 MLLE–PAM2 interaction inhibitors, dose response, miRNA deadenylation inhibitor project, biochemical, fluorescence polarization, Cy5-PAM2 peptide, secondary (AID 602260); assay type: functional; conditions: read-out: IC50_Mean
T3 sequence (P11940 whole entry): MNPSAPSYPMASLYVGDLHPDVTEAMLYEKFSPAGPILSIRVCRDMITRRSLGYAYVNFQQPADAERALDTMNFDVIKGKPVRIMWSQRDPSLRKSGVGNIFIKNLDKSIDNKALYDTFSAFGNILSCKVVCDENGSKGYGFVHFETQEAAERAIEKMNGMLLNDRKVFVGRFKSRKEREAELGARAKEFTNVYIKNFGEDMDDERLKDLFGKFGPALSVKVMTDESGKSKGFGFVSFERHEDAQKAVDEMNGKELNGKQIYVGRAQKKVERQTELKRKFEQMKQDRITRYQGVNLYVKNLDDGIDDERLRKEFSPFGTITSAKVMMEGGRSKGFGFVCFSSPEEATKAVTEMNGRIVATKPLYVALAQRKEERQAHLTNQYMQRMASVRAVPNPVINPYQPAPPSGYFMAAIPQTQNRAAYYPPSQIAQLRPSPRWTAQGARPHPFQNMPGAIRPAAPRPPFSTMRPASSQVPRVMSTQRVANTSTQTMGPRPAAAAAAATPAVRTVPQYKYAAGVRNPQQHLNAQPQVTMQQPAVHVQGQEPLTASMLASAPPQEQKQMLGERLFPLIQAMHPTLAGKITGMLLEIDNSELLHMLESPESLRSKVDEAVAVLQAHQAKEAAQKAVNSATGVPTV

[9] = molecular target: T3, Polyadenylate-binding protein 1; test: PABP1 MLLE–PAM2 binding inhibitor potency, dose response, biochemical, fluorescence polarization, FITC-PAM2 peptide (AID 602259); assay type: functional; conditions: read-out: IC50_Mean
[10] = cytotoxicity toward NIH3T3 fibroblasts, dose response, counter-screen, cell-based, ATP luminescence, mouse fibroblasts (AID 2010); assay type: functional;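 note: cells exposed to compound for about 90 hours before reading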
[11] = inhibitors of intracellular T. cruzi replication, confirmation, NIH3T3 host cells, beta-gal luminescence (AID 2044); assay type: functional, cell-based;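 note: intracellular parasites grown in NIH/3T3 mouse fibroblasts as host cells; luminescent beta-galactosidase reporter signal from transgenic T. cruzi replicating inside host cells; inhibitors lower the luminescence signal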
Paired box protein Pax-8 = Paired box protein Pax-8 (Homo sapiens, UniProt Q06710); test: inhibitors of PAX8-driven TPO luciferase reporter, dose response, RMG-I cells, cherry-pick (AID 687027); assay type: functional, cell-based;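 note: luciferase reporter driven by Pax8 target thyroperoxidase promoter measured by SteadyGlo luminescence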
Sequence of Paired box protein Pax-8 (Q06710 whole entry): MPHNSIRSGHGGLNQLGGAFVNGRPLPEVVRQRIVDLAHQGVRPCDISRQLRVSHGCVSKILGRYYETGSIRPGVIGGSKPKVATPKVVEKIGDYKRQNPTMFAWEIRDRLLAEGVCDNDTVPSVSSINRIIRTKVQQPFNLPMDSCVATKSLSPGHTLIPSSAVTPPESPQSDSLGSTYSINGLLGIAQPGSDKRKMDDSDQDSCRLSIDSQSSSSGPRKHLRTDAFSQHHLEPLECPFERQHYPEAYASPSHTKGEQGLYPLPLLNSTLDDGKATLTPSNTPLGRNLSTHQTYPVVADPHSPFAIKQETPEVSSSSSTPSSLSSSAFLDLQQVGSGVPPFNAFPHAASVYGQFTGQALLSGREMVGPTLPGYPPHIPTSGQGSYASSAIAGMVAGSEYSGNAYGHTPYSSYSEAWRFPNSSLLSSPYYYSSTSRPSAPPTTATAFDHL

O=c1oc2ccccc2c2c1nc(C(F)(F)F)n2-c1ccccc1
IC50 (cells): 11.4 µM (active)

CC(=O)c1ccc(NC(=O)C(C)OC(=O)c2ccc(Br)o2)cc1 (stereo unspecified)
EC50 [1]: > 53 µM (inactive)
IC50 [2]: > 47.1 µM (inactive)

NC(=O)c1nsc(C(=O)N(c2ccccc2)C(C(=O)NCC2CCCO2)c2cccs2)c1N (stereo unspecified)
EC50 [3]: > 260 µM (inactive)

CN(C(=O)CCS(=O)(=O)c1ccc2c(c1)oc(=O)n2C)C1CCCCC1
EC50 [1]: > 53 µM (inactive)
IC50 [2]: > 47.1 µM (inactive)

O=C(C[C@@H]1C/C=C/CC[C@@H](Cc2ccc(F)cc2)C(=O)O[C@@H](c2ccccc2)CNC1=O)NCCO
IC50 (H9c2): 11.4 µM (active)

CS(=O)(=O)N(CC(=O)N1CCN(Cc2ccc3c(c2)OCO3)CC1)Cc1ccc(Cl)cc1
EC50 [4]: 497 µM (active)
EC50 [5]: 77.1 µM (active)

CCOC(=O)C(C(=O)OCC)C(Nc1ccc(Br)cc1)c1ccccc1 (stereo unspecified)
AC50 [6]: 8.85 µM (active)
EC50 [4]: 276 µM (active)
EC50 [3]: 15.2 µM (active)

CN(C)S(=O)(=O)c1ccc(Cl)c(NC(=O)CNC2(C)CCS(=O)(=O)C2)c1 (stereo unspecified)
EC50 [1]: > 53 µM (inactive)
IC50 [2]: > 47.1 µM (inactive)

CCN(CC)CCNc1ncnc2c1sc1nc(N3CCOCC3)c3c(c12)CC(C)(C)SC3
AC50 [6]: 8.39 µM (active)
EC50 [4]: 8.46 µM (active)
AC50 (INS1): 12.5 µM (active)
EC50 [5]: 7.85 µM (active)

CC1CN(C(=O)CS(=O)(=O)Cc2ccccc2)CC(C)O1 (stereo unspecified)
EC50 [3]: > 260 µM (inactive)

CC(C)(O)C#Cc1ccc(C(=O)Nc2ccc3c(c2)OCO3)s1
IC50 (cells): 5 µM (active)

CCCS(=O)(=O)N1CCC(C(=O)NCCCOC(C)C)CC1
EC50 [1]: > 53 µM (inactive)
IC50 [2]: > 47.1 µM (inactive)

COc1cccc(C(=O)CSc2nnc(-c3cc(OC)c(OC)c(OC)c3)o2)c1
IC50 (H9c2): > 79 µM (inactive)

O=C(CCc1nc(O)c2ccccc2n1)NCc1ccco1
EC50 [7]: > 195 µM (not active)
IC50 (H9c2): > 79 µM (inactive)

Cc1ccc(NC(=O)CSC2=NCCN2)cc1
IC50 [8]: > 66 µM (inactive)
IC50 [9]: > 66 µM (inactive)

Cc1cccc(-n2c(SCC(=O)N3CC(=O)Nc4ccccc43)nc3ccccc3c2=O)c1C
EC50 [1]: > 53 µM (inactive)
IC50 [2]: > 47.1 µM (inactive)

Cc1[nH]n(C(N)=S)c(=O)c1/N=N/c1ccc(S(=O)(=O)N2CCCC2)cc1
IC50 [8]: > 66 µM (inactive)
IC50 [9]: > 66 µM (inactive)

COCCCNc1nc2ccccc2nc1NS(=O)(=O)c1cccc(Cl)c1
IC50 [8]: > 66 µM (inactive)
IC50 [9]: > 66 µM (inactive)

CCCCCn1c(N)c(-c2nc3ccccc3s2)c2c([N+](=O)[O-])nn(C)c(=O)c21
EC50 [10]: > 60 µM (not active)
EC50 [4]: 10.1 µM (active)
EC50 [5]: 12.5 µM (active)
EC50 [11]: 2.14 µM (active)

COc1ccc(/C=C/C(=O)C23CC4CC(CC(C4)C2)C3)cc1CN1CCOCC1
EC50 [3]: 46 µM (active)

Cc1ccc(OCC(=O)Nc2ccc([N+](=O)[O-])cn2)cc1C
EC50 [1]: > 53 µM (inactive)
IC50 [2]: > 47.1 µM (inactive)

c1ccc(SCCOCCN2CCOCC2)cc1
EC50 [3]: > 260 µM (inactive)

Cc1c(C(=O)NCC2COc3ccccc3O2)oc2ccc(S(=O)(=O)N3CCOCC3)cc12 (stereo unspecified)
IC50 (H9c2): > 79 µM (inactive)

CCOC(=O)COc1cc([N+](=O)[O-])cc2cccnc12
IC50 (cells): 46.4 µM (active)

C[C@@H]1CN([C@H](C)CO)C(=O)c2cc(NC(=O)c3ccccc3)ccc2O[C@@H](C)CCCCO[C@H]1CN(C)Cc1ccc(C(F)(F)F)cc1
AC50 (Paired box protein Pax-8): 3.09 µM (active)

COc1ccc(-c2nc3c(c4nnc(SC(C)C(=O)Nc5ccccc5)n24)COC(C)(C)C3)cc1 (stereo unspecified)
EC50 [4]: 9.44 µM (active)
EC50 [5]: 8.77 µM (active)
